Assay results as given in patent US20260015350A1, “AZAQUINAZOLINE PAN-KRAS INHIBITORS” (Mirati Therapeutics, Inc., priority 2022, published 2026).

Legend:
KRas^WT = molecular target: T1, KRas^WT (Homo sapiens, UniProt P01116); test: KRas binding assay (TR-FRET tracer displacement), KRas WT; conditions: TR-FRET tracer displacement, KRas WT
T1 construct: Biotinylated KRas (corresponding to amino acids 1-169, produced at Accelegan Inc.); biotin (biotinylated); purchased Accelegan Inc

KRas^G12C = molecular target: T2, KRas^G12C (Homo sapiens, UniProt P01116, G12C); test: KRas binding assay (TR-FRET tracer displacement), KRas G12C; conditions: TR-FRET tracer displacement, KRas G12C
T2 construct: Biotinylated KRas (corresponding to amino acids 1-169, produced at Accelegan Inc.); biotin (biotinylated); purchased Accelegan Inc
T2 sequence (P01116 1-169 isoform P01116-2 G12C): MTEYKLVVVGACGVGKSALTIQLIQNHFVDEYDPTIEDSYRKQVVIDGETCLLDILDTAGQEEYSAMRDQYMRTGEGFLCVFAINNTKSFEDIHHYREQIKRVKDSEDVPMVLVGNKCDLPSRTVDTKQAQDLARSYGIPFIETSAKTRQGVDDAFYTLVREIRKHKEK

KRas^G12D = molecular target: T3, KRas^G12D (Homo sapiens, UniProt P01116, G12D); test: KRas binding assay (TR-FRET tracer displacement), KRas G12D
T3 construct: Biotinylated KRas (corresponding to amino acids 1-169, produced at Accelegan Inc.); biotin (biotinylated); purchased Accelegan Inc
T3 sequence (P01116 1-169 isoform P01116-2 G12D): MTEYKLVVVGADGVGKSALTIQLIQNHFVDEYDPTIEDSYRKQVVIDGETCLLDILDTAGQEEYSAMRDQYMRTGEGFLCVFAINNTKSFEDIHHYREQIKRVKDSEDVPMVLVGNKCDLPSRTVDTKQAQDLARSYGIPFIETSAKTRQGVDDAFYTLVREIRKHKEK

KRas^G12S = molecular target: T4, KRas^G12S (Homo sapiens, UniProt P01116, G12S); test: KRas binding assay (TR-FRET tracer displacement), KRas G12S; conditions: TR-FRET tracer displacement, KRas G12S
T4 construct: Biotinylated KRas (corresponding to amino acids 1-169, produced at Accelegan Inc.); biotin (biotinylated); purchased Accelegan Inc
T4 sequence (P01116 1-169 isoform P01116-2 G12S): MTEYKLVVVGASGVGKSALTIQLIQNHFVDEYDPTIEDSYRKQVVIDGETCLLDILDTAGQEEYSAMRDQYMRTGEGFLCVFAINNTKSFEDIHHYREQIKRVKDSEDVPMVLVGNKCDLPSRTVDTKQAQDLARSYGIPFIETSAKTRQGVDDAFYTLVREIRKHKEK

KRas^G12V = molecular target: T5, KRas^G12V (Homo sapiens, UniProt P01116, G12V); test: KRas binding assay (TR-FRET tracer displacement), KRas G12V
T5 construct: Biotinylated KRas (corresponding to amino acids 1-169, produced at Accelegan Inc.); biotin (biotinylated); purchased Accelegan Inc
T5 sequence (P01116 1-169 isoform P01116-2 G12V): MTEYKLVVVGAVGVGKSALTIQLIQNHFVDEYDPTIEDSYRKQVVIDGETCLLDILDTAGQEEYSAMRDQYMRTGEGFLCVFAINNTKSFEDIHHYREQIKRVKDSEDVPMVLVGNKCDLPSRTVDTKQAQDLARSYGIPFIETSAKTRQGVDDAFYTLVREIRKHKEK

[1] = system: KRas-mediated phosphorylation of ERK in MKN1 cells; test: Inhibition of KRas-mediated phosphorylation of ERK (Cisbio HTRF pERK), MKN1 cells; type: cell-based; conditions: Homo sapiens, MKN-1
Outline: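 Day 1 seeding: 6,000 cells per well, RPMI/10% FBS, left overnight at 37° C. with 5% CO2. Plates then stood covered for 4 h at room temperature prior to HTRF detection of pERK.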

[2] = system: KRas-mediated phosphorylation of ERK in AsPC-1 cells; test: Inhibition of KRas-mediated phosphorylation of ERK (Cisbio HTRF pERK), AsPC-1 cells; type: cell-based; conditions: Homo sapiens, ASPC1, AsPC-1 cells; HTRF pERK
Outline: (§1)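 Each compound was tested at 10 concentrations, threefold apart with 10 uM the highest, for 3 hrs on 6,000 seeded cells; final DMSO was 0.8% and Trametinib (0.2 uM) served as Min control. Lysed cells were analysed for pERK by HTRF.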

[3] = system: KRas-mediated phosphorylation of ERK in H727 cells; test: Inhibition of KRas-mediated phosphorylation of ERK (Cisbio HTRF pERK), H727 cells; type: cell-based; conditions: Homo sapiens, NCI-H727, H727 cells; HTRF pERK
Outline: as §1

[4] = system: KRas-mediated phosphorylation of ERK in A549 cells; test: Inhibition of KRas-mediated phosphorylation of ERK (Cisbio HTRF pERK), A549 cells; type: cell-based; conditions: Homo sapiens, HTRF pERK
Outline: (§2)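 Using 6,000 cells per well, compounds are applied for 3 hrs and cells then lysed at 4° C with shaking for 40 mins. Phospho-ERK is measured by HTRF after 2 hrs of lysate incubation with the d2/Cryptate antibody mixture.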

[5] = system: KRas-mediated phosphorylation of ERK in H460 cells; test: Inhibition of KRas-mediated phosphorylation of ERK (Cisbio HTRF pERK), H460 cells; type: cell-based; conditions: Homo sapiens, NCI-H460, HTRF pERK
Outline: as §1

[6] = system: KRas-mediated phosphorylation of ERK in HCT116 cells; test: Inhibition of KRas-mediated phosphorylation of ERK (Cisbio HTRF pERK), HCT116 cells; type: cell-based; conditions: Homo sapiens, HCT-116, HTRF pERK
Outline: as §2

[7] = system: KRas-mediated phosphorylation of ERK in H358 cells; test: Inhibition of KRas-mediated phosphorylation of ERK (Cisbio HTRF pERK), H358 cells; type: cell-based; conditions: Homo sapiens, NCI-H358, HTRF pERK
Outline: as §1

T1 sequence (P01116 1-169 isoform P01116-2): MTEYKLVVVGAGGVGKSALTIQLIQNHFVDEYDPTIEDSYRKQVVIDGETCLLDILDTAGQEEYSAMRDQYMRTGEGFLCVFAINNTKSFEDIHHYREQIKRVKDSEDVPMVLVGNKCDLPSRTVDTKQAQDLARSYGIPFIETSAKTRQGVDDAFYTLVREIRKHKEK

SMILES	IC50 (KRas^WT) [nM]	IC50 (KRas^G12C) [nM]	IC50 (KRas^G12D) [nM]	IC50 (KRas^G12S) [nM]	IC50 (KRas^G12V) [nM]	IC50 [1] [nM]	IC50 [2] [nM]	IC50 [3] [nM]	IC50 [4] [nM]	IC50 [5] [nM]	IC50 [6] [nM]	IC50 [7] [nM]
C[C@@H]1C[C@@H]1c1c(Cl)cc(O)cc1-c1ncc2c(N3CCCn4nc(C(=O)N(C)C)cc4C3)nc(OC[C@@]34CCCN3C[C@H](F)C4)nc2c1F [Example 933, 5-(7-(3-chloro-5-hydroxy-2-((1S,2R)-2-methylcyclopropyl)phenyl)-8-fluoro-2-(((2R,7aS)-2-fluorotetrahydro-1H-pyrrolizin-7a(5H)-yl)methoxy)pyrido[4,3-d]pyrimidin-4-yl)-N,N-dimethyl-5,6,7,8-tetrahydro-4H-pyrazolo[1,5-a][1,4]diazepine-2-carboxamide]	4	< 2	< 2	< 2	< 2	11	29	70	202	287	526	18
CCc1c(F)ccc2cc(O)cc(-c3ncc4c(N5C[C@@H]6C[C@H](C5)[C@H](O)C6)nc(OC[C@@H]5CC[C@H]6COCCN65)nc4c3F)c12 [Example 945, (1R,5R,6R)-3-(7-(8-ethyl-7-fluoro-3-hydroxynaphthalen-1-yl)-8-fluoro-2-(((6S,8aS)-hexahydro-1H-pyrrolo[2,1-c][1,4]oxazin-6-yl)methoxy)pyrido[4,3-d]pyrimidin-4-yl)-3-azabicyclo[3.2.1]octan-6-ol]	3	4	6	< 2	3	0.2	79	29	46	29	40	12
C=C1CN2CC(=C)CC2(COc2nc(N3C[C@@H]4C[C@H](C3)[C@H](O)C4)c3cnc(-c4cc(O)cc5ccc(F)c(CC)c45)c(F)c3n2)C1 [Example 796, (1R,5R,6R)-3-(2-((2,6-dimethylenetetrahydro-1H-pyrrolizin-7a(5H)-yl)methoxy)-7-(8-ethyl-7-fluoro-3-hydroxynaphthalen-1-yl)-8-fluoropyrido[4,3-d]pyrimidin-4-yl)-3-azabicyclo[3.2.1]octan-6-ol]	< 2	< 2	< 2	< 2	< 2	2	21	12	7	8	37	5
C=C1CN2CCCC2(COc2nc(N3CCCC4(CNS(=O)(=O)N4)C3)c3cnc(-c4cc(O)cc5ccc(F)c(CC)c45)c(F)c3n2)C1 (centres unmarked) [Example 940, 7-(7-(8-ethyl-7-fluoro-3-hydroxynaphthalen-1-yl)-8-fluoro-2-((2-methylenetetrahydro-1H-pyrrolizin-7a(5H)-yl)methoxy)pyrido[4,3-d]pyrimidin-4-yl)-2-thia-1,3,7-triazaspiro[4.5]decane 2,2-dioxide]	< 2	< 2	< 2	< 2	< 2	2	42	72	33	17	43	10
C[C@@H]1C[C@@H]1c1c(Cl)cc(O)cc1-c1ncc2c(N3CCCn4nc(C(=O)N(C)C)cc4C3)nc(OCC34CCCN3C/C(=C\F)C4)nc2c1F (stereo partly drawn) [Example 936, 5-(7-(3-chloro-5-hydroxy-2-((1S,2R)-2-methylcyclopropyl)phenyl)-8-fluoro-2-(((Z)-2-(fluoromethylene)tetrahydro-1H-pyrrolizin-7a(5H)-yl)methoxy)pyrido[4,3-d]pyrimidin-4-yl)-N,N-dimethyl-5,6,7,8-tetrahydro-4H-pyrazolo[1,5-a][1,4]diazepine-2-carboxamide]	3	2	< 2	< 2	< 2	2	17	25	71	104	262	11
C=C1CN2CCCC2(COc2nc(N3CC4C(=O)NC(=O)C4C3)c3cnc(-c4cc(O)cc5ccc(F)c(CC)c45)c(F)c3n2)C1 (centres unmarked) [Example 947, 5-(7-(8-ethyl-7-fluoro-3-hydroxynaphthalen-1-yl)-8-fluoro-2-((2-methylenetetrahydro-1H-pyrrolizin-7a(5H)-yl)methoxy)pyrido[4,3-d]pyrimidin-4-yl)tetrahydropyrrolo[3,4-c]pyrrole-1,3(2H,3aH)-dione]	< 2	< 2	< 2	< 2	< 2	4	157	352	119	–	–	29
C[C@@H]1C[C@@H]1c1c(Cl)cc(O)cc1-c1ncc2c(N3CCC[C@]4(C3)NC(=O)NC4=O)nc(OC[C@@]34CCCN3C[C@H](F)C4)nc2c1F [Example 932, (R)-7-(7-(3-chloro-5-hydroxy-2-((1S,2R)-2-methylcyclopropyl)phenyl)-8-fluoro-2-(((2R,7aS)-2-fluorotetrahydro-1H-pyrrolizin-7a(5H)-yl)methoxy)pyrido[4,3-d]pyrimidin-4-yl)-1,3,7-triazaspiro[4.5]decane-2,4-dione]	< 2	< 2	< 2	< 2	< 2	3	139	225	69	33	130	23
C[C@@H]1C[C@@H]1c1c(Cl)cc(O)cc1-c1ncc2c(N3CCC[C@]4(C3)NC(=O)NC4=O)nc(OCC34CCCN3C/C(=C\F)C4)nc2c1F (stereo partly drawn) [Example 937, (5R)-7-(7-(3-chloro-5-hydroxy-2-((1S,2R)-2-methylcyclopropyl)phenyl)-8-fluoro-2-(((Z)-2-(fluoromethylene)tetrahydro-1H-pyrrolizin-7a(5H)-yl)methoxy)pyrido[4,3-d]pyrimidin-4-yl)-1,3,7-triazaspiro[4.5]decane-2,4-dione]	< 2	< 2	< 2	< 2	< 2	1	116	116	55	36	88	12
C/C=C1/CN2CCCC2(COc2nc(N3C[C@@H]4C[C@H](C3)[C@H](O)C4)c3cnc(-c4cc(O)cc5ccc(F)c(CC)c45)c(F)c3n2)C1 (stereo partly drawn) [Example 939, (1R,5R,6R)-3-(7-(8-ethyl-7-fluoro-3-hydroxynaphthalen-1-yl)-2-(((E)-2-ethylidenetetrahydro-1H-pyrrolizin-7a(5H)-yl)methoxy)-8-fluoropyrido[4,3-d]pyrimidin-4-yl)-3-azabicyclo[3.2.1]octan-6-ol]	< 2	< 2	< 2	< 2	< 2	0.1	32	28	11	18	27	5
C=C1CN2CCCC2(COc2nc(N3CCCC4(CC(=O)N4)C3)c3cnc(-c4cc(O)cc5ccc(F)c(CC)c45)c(F)c3n2)C1 (centres unmarked) [Example 943, 6-(7-(8-ethyl-7-fluoro-3-hydroxynaphthalen-1-yl)-8-fluoro-2-((2-methylenetetrahydro-1H-pyrrolizin-7a(5H)-yl)methoxy)pyrido[4,3-d]pyrimidin-4-yl)-1,6-diazaspiro[3.5]nonan-2-one]	< 2	< 2	< 2	< 2	< 2	0.4	32	50	27	–	–	4
